Measured values taken from patent US20060110804A1, “Method of treating an organ for transplantation” (priority 2004, published 2006).
Entries after “also recorded” stand apart in the source; their conditions may differ. Like-named read-outs stand apart in the source and are kept apart here.

Experiments:
[1] = tested on: liver grafts; test: Bile output of cold-preserved liver grafts during ex vivo reperfusion; design: species or system rat; settings: for bile output vs bilirubin-free control: hemin-untreated C16 grafts, 5 μmol/L bilirubin
Experimental: The rats injected with hemin or physiological saline were anesthetized by intraperitoneal injection of pentobarbital sodium (40 mg/kg body weight) and a PE-10 catheter for bile sample collection was inserted into the common bile duct of each rat. A 16-gauge catheter was inserted into the portal vein and 20 ml lactated Ringer's solution kept at 4° C. was passed through the catheter. Subsequently, rat livers were perfused with 20 ml University of Wisconsin solution (UW solution) of 4° C., excised and then preserved in the same solution at 4° C. for 16 hours. […] After cold preservation for 16 hours, each liver graft was reperfused via the portal vein with 95% oxygen-5% carbon dioxide-saturated Krebs-Henseleit buffer (pH 7.4, 37° C.) at 4 ml/min/g liver in the presence of 30 μmol/L sodium taurocholate (see Document 4).
In the hemin-treated liver grafts from Example 1, after 16-hour cold preservation (Hemin/C16), bile samples were collected from the common bile duct every 5 minutes during 40 minute reperfusion. […] The hemin-untreated grafts receiving no cold preservation (Control) and 16-hour cold preservation (C16) were also provided for the same measurement.
The grafts were reperfused with carbogen-saturated Krebs-Henseleit buffer (pH 7.4, 37° C.) supplemented with bilirubin (Sigma Chemical, Co.) and/or CO in combination with 1 μmol/L ZnPP. […] Similarly, hemin-untreated (a) and hemin-treated (b) grafts were provided in the absence of ZnPP for use as controls.
The same experiment as described in Example 4 was repeated, except that the doses of bilirubin and/or CO were varied. After being cold-preserved for 16 hours, the hemin-treated grafts were reperfused for 30 minutes in the presence of ZnPP using reperfusate containing various concentrations of bilirubin and/or CO, and then measured for the levels of bile output, bile salts and phospholipids in bile from the grafts, which were determined in percentages relative to those obtained by reperfusion in the absence of ZnPP.

[2] = tested on: liver grafts; test: Bile salts and phospholipids in bile of ex vivo reperfused liver grafts (enzyme inhibition assay); design: species or system rat; settings: hemin-treated C16 grafts, 30 minute reperfusion, concentration of 5 μmol/L or less
Experimental: To examine whether bilirubin and/or CO could recover the HO-1-inducing effect inhibited by ZnPP, a strong HO activity inhibitor, the following experiment was carried out. The grafts were reperfused with carbogen-saturated Krebs-Henseleit buffer (pH 7.4, 37° C.) supplemented with bilirubin (Sigma Chemical, Co.) and/or CO in combination with 1 μmol/L ZnPP. […] The total amounts of bile salts and phospholipids in bile samples were measured by enzyme inhibition assay according to a reported method (see Document 23).
An attempt was made to examine dose-dependent effects of bilirubin and/or CO during co-perfusion. […] After being cold-preserved for 16 hours, the hemin-treated grafts were reperfused for 30 minutes in the presence of ZnPP using reperfusate containing various concentrations of bilirubin and/or CO, and then measured for the levels of bile output, bile salts and phospholipids in bile from the grafts, which were determined in percentages relative to those obtained by reperfusion in the absence of ZnPP.

[3] = tested on: liver grafts; test: Bilirubin-IXα concentration in bile of ex vivo reperfused liver grafts (ELISA, antibody 24G7); design: species or system rat
Experimental: (§1) The rats injected with hemin or physiological saline were anesthetized by intraperitoneal injection of pentobarbital sodium (40 mg/kg body weight) and a PE-10 catheter for bile sample collection was inserted into the common bile duct of each rat. A 16-gauge catheter was inserted into the portal vein and 20 ml lactated Ringer's solution kept at 4° C. was passed through the catheter. Subsequently, rat livers were perfused with 20 ml University of Wisconsin solution (UW solution) of 4° C., excised and then preserved in the same solution at 4° C. for 16 hours. Since acute oxidative stress would eventually occur, as judged by intracellular hydroperoxide production which occurred concurrently with a reduction of bile formation, a time period of 16 hours was selected for preservation purposes. […]
In the hemin-treated liver grafts from Example 1, after 16-hour cold preservation (Hemin/C16), bile samples were collected from the common bile duct every 5 minutes during 40 minute reperfusion. The bile samples collected at 30 minutes after initiation of reperfusion were also measured for their bilirubin-IXα concentration by enzyme-linked immunosorbent assay detection using the monoclonal antibody 24G7 capable of recognizing both conjugated and unconjugated bilirubin fractions, as described in earlier documents (see Documents 21 and 22). […]

[4] = tested on: liver grafts; test: LDH released into hepatic venous perfusate of ex vivo reperfused liver grafts (liver cell damage); design: species or system rat
Experimental: As in the case of Example 5, after being cold-preserved for 16 hours, the hemin-treated grafts were reperfused for 30 minutes in the presence of ZnPP using reperfusate containing varying concentrations of bilirubin, and then measured for the amount of lactate dehydrogenase (LDH) released into the hepatic venous perfusate, which was indicative of liver cell damage in the grafts. For use as controls, hemin-untreated grafts receiving 16-hour cold preservation (C16) and hemin-treated grafts receiving 16-hour cold preservation (Hemin/C16) were provided in the absence of ZnPP. The amount of LDH was measured as described in an earlier document (see Document 24). […] The grafts were divided into the following test groups: (a) receiving 5 minute reperfusion with the bilirubin-containing buffer and subsequent 35 minute reperfusion in the absence of bilirubin, (b) receiving 15 minute reperfusion with the bilirubin-containing buffer and subsequent 25 minute reperfusion in the absence of bilirubin, and (c) receiving 40 minute perfusion with the bilirubin-containing buffer. As a control group (d), the cold-preserved grafts received only bilirubin-free perfusion for 40 minutes. Bile output was then measured over time for each group. Further, FIGS. 6(B) and (C) show the relationship between reperfusion time with the bilirubin-containing buffer and bile output from the grafts and the relationship between reperfusion time and venous LDH concentration, respectively.

[5] = tested on: liver grafts; test: Liver isograft transplantation model: blood levels of AST, ALT and LDH (graft injury); type: in vivo, rat; settings: washing with irrigation solution containing a higher concentration of bilirubin than 5 to 10 μmol/L
Experimental: (§2) To examine in vivo effects of HO-1 preconditioning, a model experiment for liver isograft transplantation was carried out. Male inbred Lewis rats of 220-280 g were allowed to drink water without any restriction, fasted for 24 hours before the experiment, and provided for use as donors and recipients for liver transplantation. In HO-1 preconditioning groups, the rats were hemin-treated at 18 hours before graft preparation in the same manner as used in the ex vivo experiment of Example 1. Liver transplantation was performed according to the technique developed by Kamada (see Document 25) with minor modifications. More specifically, the donors were anesthetized by intraperitoneal injection of pentobarbital sodium (40 mg/kg body weight) and then laparotomized. […]
(§3) In light of Example 7 showing that short-term washing with bilirubin was effective for recovery of post-reperfusion stasis and cell injury in the liver grafts cold-preserved for 16 hours, further attempts were made to examine the in vivo effect of bilirubin washing against post-transplantation injury in the cold-preserved grafts. […] The level of bile output was measured at 30 minutes and 24 hours after initiation of reperfusion. To determine the degree of graft injury at 24 hours after initiation of reperfusion, blood levels of aspartate aminotransferase (AST), alanine aminotransferase (ALT) and LDH were measured in a standard manner. […]

[6] = tested on: liver grafts; test: Liver isograft transplantation model: bile output after initiation of reperfusion; type: in vivo, rat; settings: grafts washed with Ringer's solution containing a higher concentration of bilirubin than 5 to 10 μmol/L
Experimental: as §2, §3

[7] = tested on: liver parenchymal cells; test: Immunohistological detection of bilirubin in graft tissue with monoclonal antibody 24G7; type: in vivo, rat
Experimental: To examine the effect of bilirubin washing on the accessibility of bilirubin to graft tissues, immunohistological detection of bilirubin was performed using the anti-bilirubin-IXα monoclonal antibody 24G7 according to a previously reported method of the inventors (see Document 27). As observed in the grafts perfused with bilirubin-free lactated Ringer's solution (A), the monoclonal antibody 24G7 triggered an immune reaction primarily in liver non-parenchymal cells including Kupffer cells.

[8] = tested on: liver grafts; type: in vivo; settings: grafts washed with 50 μmol/L bilirubin-containing Ringer's solution
Experimental: as §2, §3

[9] = tested on: HO-1 protein; test: HO-1 protein expression in liver grafts by Western blot analysis; design: species or system rat; settings: hemin-treated (40 μmol/kg i.p.) vs hemin-untreated grafts
Experimental: (§4) Male Wistar rats of 190-230 g were allowed to take pellet chow and water without any restriction and then fasted for 6 hours. Subsequently, the rats were intraperitoneally injected with 40 μmol/kg hemin, a strong HO-1 inducer, and then fasted for 18 hours. […] As a hemin-untreated control, rats injected with physiological saline were fasted for 24 hours and then used for the experiment.
as §1, with “hours.” for “hours. Since acute oxidative stress would eventually occur, as judged by intracellular hydroperoxide production which occurred concurrently with a reduction of bile formation, a time period of 16 hours was selected for preservation purposes.”
(§5) The grafts prepared in Example 1 were measured for HO-1 protein expression by Western blot analysis, as described in an earlier document (see Document 20). CO fluxes in hepatic venous flow were also measured with a spectrophotometer according to a previously reported method of the inventors (see Document 16). […]

[10] = hemin-treated rats, n=4; cited from earlier work
[11] = tested on: liver grafts; test: CO fluxes in hepatic venous perfusate of ex vivo liver grafts (spectrophotometer); design: species or system rat
Experimental: as §4
as §1, with “hours.” for “hours. Since acute oxidative stress would eventually occur, as judged by intracellular hydroperoxide production which occurred concurrently with a reduction of bile formation, a time period of 16 hours was selected for preservation purposes.”
as §5

[12] = hemin-treated grafts, 16-hour cold preservation, reperfused with 1 μmol/L of the protoporphyrin

For [C-]#[O+] [CO, carbon monoxide], the “recovery of ZnPP-induced reduction of bile output” value ([1]; hemin-treated C16 grafts, 30 minute co-perfusion, 1 μmol/L ZnPP, 5 μmol/L of each test substance) was “could not achieved”, the “percentage of bile output relative to reperfusion in the absence of ZnPP” value ([1]; hemin-treated C16 grafts, ZnPP, 30 minute reperfusion, concentration of 5 μmol/L or less) was “no recovery” and the “percentage of bile salts in bile relative to reperfusion in the absence of ZnPP” value [2] was “no recovery”. The “percentage of phospholipids in bile relative to reperfusion in the absence of ZnPP” value [2] was “no recovery”.
With C=CC1=C(C)c2cc3[n-]c(cc4[n-]c(cc5nc(cc1n2)C(C)=C5C=C)c(C)c4CCC(=O)O)c(CCC(=O)O)c3C.[Zn+2] [ZnPP, zinc protoporphyrin-IX] the “bilirubin levels in bile” value ([3]; hemin-treated C16 grafts, co-perfusion with 1 μmol/L ZnPP compared to CuPP) was “significant decrease”, the bile output [1, 12] was “reduced bile output; also recorded: canceled the effect of hemin treatment” and the “venous LDH release” value [4] was “significantly increased”.
With C=CC1=C(C)/C(=C/c2[nH]c(Cc3[nH]c(/C=C4\NC(=O)C(C)=C4C=C)c(C)c3CCC(=O)O)c(CCC(=O)O)c2C)NC1=O [bilirubin] the “cell injury (sAST, sALT, sLDH) at 24 hours after transplantation” value [5] was “exacerbation of cell injury”, the “adverse effect on bile secretion or cell survival” value ([1]; hemin-treated C16 grafts, 30 minutes, 5 μmol/L bilirubin in the presence of ZnPP) was “no adverse effect” and the “bile output vs bilirubin-free control” value ([1]; 15 minute reperfusion then 25 minutes without bilirubin) was “significant decrease”. For the same compound, the “bile output vs bilirubin-free control” value ([1]; 40 minute perfusion) was “significant decrease”, the “bile output after transplantation” value [6] was “cholestasis occurred” and the “accessibility of bilirubin to liver parenchymal cells (immune reaction)” value ([7]; grafts washed with bilirubin-containing Ringer's solution) was “highly absorbed into liver parenchymal cells”. The “accessibility of bilirubin to liver parenchymal cells (immune reaction)” value ([7]; grafts washed with bilirubin-containing Ringer's solution supplemented with PPF) was “accessibility of bilirubin was canceled”, the “LDH release (graft damage)” value ([4]; hemin-untreated C16 grafts, prolonged reperfusion with 5 μmol/L bilirubin-containing buffer) was “increases in LDH release” and the “rats able to survive for 24 hours after transplantation” value [8] was “None”.
In the case of copper protoporphyrin-IX [CuPP], the bile output [1, 12] is reported as “substantially the same bile output”.
With hemin the “bilirubin fluxes in bile, relative to hemin-untreated group” value ([3]; hemin-treated, cold-preserved 16 hours, reperfused 30 minutes) was “about 1.5 fold”, the bile output ([1]; hemin-treated grafts after 16-hour cold preservation (Hemin/C16) vs hemin-untreated cold-preserved grafts (C16)) was “higher plateau; also recorded: increase in bile output” and the “time of bile output recovery after initiation of reperfusion” value ([1]; hemin-treated grafts, 16-hour cold preservation (Hemin/C16)) was 10 min. For the same compound, the HO-1 expression [9] was “significant increases”, the “plasma bilirubin concentration in portal blood” value [10] was 3.2 ± 0.8 µmol/L and the “venous LDH release” value ([4]; hemin-treated control, 16-hour cold preservation (Hemin/C16), no ZnPP) was “almost complete inhibition”. The “venous CO fluxes” value ([11]; hemin-treated (40 μmol/kg i.p.) vs hemin-untreated grafts) was “significant increases” and the “increase in hepatic venous CO fluxes” value ([11]; hemin-treated grafts, 16-hour cold preservation with or without 30 minute reperfusion, vs hemin-untreated grafts) was roughly 3 fold.
